Our source for the Ki values is publication PMC4074244 (Nature, 2014).

Assay [1] has as its target T1, mitochondrial glycerophosphate dehydrogenase (mGPD) (Homo sapiens, UniProt P43304).
T1 sequence (P43304 43-727): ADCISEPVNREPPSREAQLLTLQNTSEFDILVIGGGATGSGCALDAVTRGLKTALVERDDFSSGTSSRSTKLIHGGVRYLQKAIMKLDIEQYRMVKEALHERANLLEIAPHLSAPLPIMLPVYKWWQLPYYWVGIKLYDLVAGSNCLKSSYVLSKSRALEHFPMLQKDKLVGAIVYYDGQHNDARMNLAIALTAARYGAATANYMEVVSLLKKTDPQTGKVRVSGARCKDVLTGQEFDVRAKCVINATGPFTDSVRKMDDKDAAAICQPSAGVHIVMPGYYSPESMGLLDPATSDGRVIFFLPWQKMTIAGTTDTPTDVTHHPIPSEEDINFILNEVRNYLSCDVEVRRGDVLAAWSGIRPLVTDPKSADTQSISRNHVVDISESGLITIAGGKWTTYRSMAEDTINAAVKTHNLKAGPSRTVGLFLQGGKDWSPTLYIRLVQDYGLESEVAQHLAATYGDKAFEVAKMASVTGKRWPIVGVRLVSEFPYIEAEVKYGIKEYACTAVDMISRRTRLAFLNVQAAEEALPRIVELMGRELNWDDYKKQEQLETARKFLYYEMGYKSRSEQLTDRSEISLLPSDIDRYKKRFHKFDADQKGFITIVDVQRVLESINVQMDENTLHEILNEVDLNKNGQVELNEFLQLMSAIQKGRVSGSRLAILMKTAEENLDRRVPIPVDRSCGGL
Put plainly: DCIP reduction assay. The format is biochemical.

The target of assay [2] is T2, mitochondrial glycerophosphate dehydrogenase (mGPD) (Rattus norvegicus, UniProt P35571).
T2 sequence (P35571 43-727): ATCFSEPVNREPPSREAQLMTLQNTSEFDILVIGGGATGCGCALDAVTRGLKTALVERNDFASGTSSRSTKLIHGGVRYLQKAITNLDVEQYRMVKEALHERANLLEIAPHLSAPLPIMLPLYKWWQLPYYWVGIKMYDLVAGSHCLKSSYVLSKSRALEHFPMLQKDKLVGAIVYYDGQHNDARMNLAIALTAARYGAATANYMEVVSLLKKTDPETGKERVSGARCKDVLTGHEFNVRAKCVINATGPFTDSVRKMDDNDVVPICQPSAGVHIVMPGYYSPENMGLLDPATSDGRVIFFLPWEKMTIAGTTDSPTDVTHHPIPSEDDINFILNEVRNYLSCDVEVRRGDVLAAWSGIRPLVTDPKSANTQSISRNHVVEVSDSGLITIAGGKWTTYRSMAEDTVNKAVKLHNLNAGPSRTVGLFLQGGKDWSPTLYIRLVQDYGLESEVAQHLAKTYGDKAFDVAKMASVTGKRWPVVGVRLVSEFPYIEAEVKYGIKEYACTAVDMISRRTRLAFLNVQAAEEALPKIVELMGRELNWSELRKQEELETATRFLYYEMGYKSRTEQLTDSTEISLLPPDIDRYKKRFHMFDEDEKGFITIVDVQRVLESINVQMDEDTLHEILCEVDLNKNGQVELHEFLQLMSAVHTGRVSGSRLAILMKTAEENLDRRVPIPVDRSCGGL
Kind of assay: DCIP reduction assay. The format is biochemical.

Broadly, the Ki is the dissociation constant of the complex between target and ligand, obtained from inhibition or displacement. Higher therefore signals lower affinity.

On to `CN(C)C(=N)N=C(N)N` [metformin], for which the values for the Ki in assay [1] and in assay [2] were roughly 55 µM and roughly 38 µM, respectively.
